What was measured:
[1] = Activation of GFP-tagged HIF1alpha expressed in human U2OS cells assessed as HIF1alpha nuclear translocation by high content imaging assay
[2] = Activation of human HIF1alpha expressed in human U2OS cells assessed as increase in VEGF expression by RT-PCR analysis
[3] = biological target: T1, Hypoxia-inducible factor 1-alpha (Homo sapiens, UniProt Q16665); test: Activation of human HIF1alpha expressed in DFX-induced human U2OS cells incubated for 30 mins prior to DFX-induction measured after overnight incubation by luciferase reporter gene assay
[4] = biological target: T1, Hypoxia-inducible factor 1-alpha; test: Activation of human HIF1alpha expressed in DFX-induced human U2OS cells incubated for 30 mins prior to DFX-induction measured after overnight incubation by luciferase reporter gene assay in presence of 50 uM iron
[5] = biological target: T1, Hypoxia-inducible factor 1-alpha; test: Activation of human HIF1alpha expressed in DFX-induced human U2OS cells incubated for 30 mins prior to DFX-induction measured after overnight incubation by luciferase reporter gene assay in presence of 50 uM zinc

T1 sequence (Q16665 whole entry): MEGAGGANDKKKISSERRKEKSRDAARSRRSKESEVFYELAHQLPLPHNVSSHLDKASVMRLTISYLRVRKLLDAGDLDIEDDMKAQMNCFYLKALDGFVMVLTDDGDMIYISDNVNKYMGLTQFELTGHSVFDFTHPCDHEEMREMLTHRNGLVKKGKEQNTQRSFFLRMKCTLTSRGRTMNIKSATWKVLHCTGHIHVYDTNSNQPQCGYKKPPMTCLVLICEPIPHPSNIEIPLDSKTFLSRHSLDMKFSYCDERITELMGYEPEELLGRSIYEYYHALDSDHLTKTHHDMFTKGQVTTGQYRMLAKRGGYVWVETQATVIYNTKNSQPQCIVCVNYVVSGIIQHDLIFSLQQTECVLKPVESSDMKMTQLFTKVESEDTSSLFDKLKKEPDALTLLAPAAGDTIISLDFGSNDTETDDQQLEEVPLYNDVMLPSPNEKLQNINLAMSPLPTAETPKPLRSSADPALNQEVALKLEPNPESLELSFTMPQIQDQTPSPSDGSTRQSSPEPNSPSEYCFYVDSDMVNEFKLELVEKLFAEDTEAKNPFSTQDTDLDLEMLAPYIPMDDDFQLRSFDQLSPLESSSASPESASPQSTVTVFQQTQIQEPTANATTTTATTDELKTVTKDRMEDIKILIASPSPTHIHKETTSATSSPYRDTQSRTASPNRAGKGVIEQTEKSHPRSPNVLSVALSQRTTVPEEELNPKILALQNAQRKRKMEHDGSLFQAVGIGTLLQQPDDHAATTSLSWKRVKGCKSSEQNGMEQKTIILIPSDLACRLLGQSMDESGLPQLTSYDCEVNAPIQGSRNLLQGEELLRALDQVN

Row | SMILES | EC50 [1] | EC50 [2] | EC50 [3] | EC50 [4] | EC50 [5]
1 | c1ccc(-c2nnc(-c3ccccn3)nc2Nc2cnc3ccccc3n2)cc1 | 4.46 µM | 3.26 µM | 7.64 µM |  | 
2 | Cc1ccccc1CNc1nc(-c2ccccn2)nnc1-c1ccccc1 | 9.54 µM | 3.08 µM | 6.67 µM |  | 
3 | Cc1cccc(CNc2nc(-c3ccccn3)nnc2-c2ccccc2)c1 | 2.39 µM | 2.91 µM | 5.41 µM |  | 
4 | Cc1ccc(CNc2nc(-c3ccccn3)nnc2-c2ccccc2)cc1 | 1.19 µM | 2.6 µM | 4.58 µM |  | 
5 | Clc1cccc(CNc2nc(-c3ccccn3)nnc2-c2ccccc2)c1 | 1.49 µM | 2.77 µM | 2.33 µM |  | 
6 | COc1ccc(CNc2nc(-c3ccccn3)nnc2-c2ccccc2)cc1 | 3.73 µM | 3.67 µM | 4.74 µM |  | 
7 | CC(C)(C)c1ccc(CNc2nc(-c3ccccn3)nnc2-c2ccccc2)cc1 | 0.6 µM | 1.12 µM | 1.71 µM |  | 
8 | c1ccc(-c2nnc(-c3ccccn3)nc2NCc2ccccn2)cc1 | 7.62 µM | 6.45 µM | 27.8 µM |  | 
9 | O=C(NCC1CC1)c1cc(-c2ccccc2)on1 | 16.6 µM | 21.5 µM | 24.9 µM |  | 
10 | c1ccc(-c2nnc(-c3ccccn3)nc2NCC2CC2)cc1 | 4.27 µM | 6.21 µM | 12.7 µM |  | 
11 | c1ccc(-c2nnc(-c3ccccn3)nc2NCCCN2CCOCC2)cc1 | 6.27 µM | 8.12 µM | 14.2 µM |  | 
12 | CN1CCN(c2nc(-c3ccccn3)nnc2-c2ccccc2)CC1 | 10.2 µM | 8.69 µM | 21.9 µM |  | 
13 | C=CCNc1nc(-c2ccccn2)nnc1-c1ccccc1 [6-phenyl-N-prop-2-enyl-3-(2-pyridinyl)-1,2,4-triazin-5-amine] | 4.62 µM | 6.15 µM | 7.13 µM |  | 
14 | c1ccc(CNc2nc(-c3ccccn3)nnc2-c2ccccc2)cc1 [GNF-Pf-100] | 4.8 µM | 4.48 µM | 7.74 µM |  | 
15 | CN(C)c1nc(-c2ccccn2)nnc1-c1ccccc1 [MLS000541553] | 9.82 µM | 9.06 µM | 7.46 µM |  | 

Further compounds by falling EC50 [3], results first:

Row | EC50 [1] | EC50 [2] | EC50 [3] | EC50 [4] | EC50 [5] | SMILES
16 | 7.67 µM | 8.38 µM | 29.5 µM |  |  | c1ccc(-c2nnc(-c3ccccn3)nc2NCC2CCOCC2)cc1
17 | 5.02 µM | 4.35 µM | 26 µM |  |  | c1ccc(-c2nnc(-c3ccccn3)nc2NCc2cccnc2)cc1
18 | 10.5 µM | 10.6 µM | 25 µM |  |  | OCCCNc1nc(-c2ccccn2)nnc1-c1ccccc1
19 | 20 µM | 28 µM | 23.9 µM |  |  | O=C(NCCCN1CCOCC1)c1cc(-c2ccccc2)on1
20 | 11.6 µM | 12.1 µM | 22.9 µM |  |  | OCC1CCN(c2nc(-c3ccccn3)nnc2-c2ccccc2)CC1
21 | 5.41 µM | 7.55 µM | 22.4 µM |  |  | Cc1cccc(Nc2nc(-c3ccccn3)nnc2-c2ccccc2)n1
22 | 3.04 µM | 7.57 µM | 22 µM |  |  | O=C(NCCCCO)c1cc(-c2ccccc2)on1
23 | 9.08 µM | 10 µM | 20.8 µM |  |  | c1ccc(-c2nnc(-c3ccccn3)nc2NCCN2CCOCC2)cc1
24 |  |  | 17.8 µM |  |  | CC(=O)N(O)CCCCCNC(=O)CCC(=O)N(O)CCCCCNC(=O)CCC(=O)N(O)CCCCCN [N-[5-[[4-[5-[acetyl(hydroxy)amino]pentylamino]-4-oxobutanoyl]-hydroxyamino]pentyl]-N''-(5-aminopentyl)-N''-hydroxybutanediamide;methanesulfonic acid]
25 | 9.84 µM | 9.6 µM | 17.5 µM |  |  | c1ccc(-c2nnc(-c3ccccn3)nc2NCCc2ccccn2)cc1
26 |  |  | 8.85 µM |  |  | CCCCNC(=O)c1cc(-c2ccc(F)cc2)on1
27 | 7.72 µM | 15.8 µM | 8.67 µM |  |  | O=C(NCCCn1ccnc1)c1cc(-c2ccccc2)on1 [MLS000708948]
28 | 1.2 µM | 1.88 µM | 6.73 µM |  |  | C[C@@H](Nc1nc(-c2ccccn2)nnc1-c1ccccc1)C1CCCCC1
29 | 2.46 µM | 3.45 µM | 4.74 µM |  |  | c1ccc(-c2nnc(-c3ccccn3)nc2NCC2CCCCC2)cc1
30 | 2.06 µM | 2.55 µM | 4.17 µM |  |  | C[C@H](Nc1nc(-c2ccccn2)nnc1-c1ccccc1)C1CCCCC1
31 | 6.27 µM | 3.92 µM | 4.15 µM |  |  | COc1cccc(CNc2nc(-c3ccccn3)nnc2-c2ccccc2)c1
32 | 9.82 µM | 8.72 µM | 3.63 µM |  |  | c1ccc(CCNc2nc(-c3ccccn3)nnc2-c2ccccc2)cc1
33 | 3.82 µM | 2.48 µM | 2.97 µM |  |  | CC(C)(C)CCNc1nc(-c2ccccn2)nnc1-c1ccccc1
34 | 2.3 µM | 1.85 µM | 2.96 µM |  |  | Cc1ccc(CNc2nc(-c3ccccn3)nnc2-c2ccccc2)cc1C
35 | 0.5 µM | 2.57 µM | 2.49 µM |  |  | c1ccc(-c2cccc(CNc3nc(-c4ccccn4)nnc3-c3ccccc3)c2)cc1
36 | 1.4 µM | 1.63 µM | 1.12 µM | 15.6 µM | 5.01 µM | c1ccc(-c2ccc(CNc3nc(-c4ccccn4)nnc3-c3ccccc3)cc2)cc1

— BindingDB's records for doi:10.1016/j.bmcl.2011.11.077 (The Broad Institute Probe Development Center, 2011)
